Bases are written 5' to 3'; sugars and linkages follow in the same order, as letters with counts (s phosphorothioate, o phosphodiester; PS: all linkages phosphorothioate). The collection does not say whether C is 5-methylated. l = locked nucleic acid (LNA); d = 2'-deoxy (DNA)
The sequences below were run against Tau (assay: rat primary cortical neurons, FLIPR, 25 uM ASO).

Row | Sequence | calcium oscillation score
1 | TGCTTACACACCACACA (sugars l2 d12 l3, PS) | 80.5 % of control
2 | TTAATTATTAAATCTTCTCT (sugars l4 d12 l4, PS) | 60.1 % of control
3 | TATTTCCAAATTCACTTTTA (sugars llldldddddddddllddll, PS) | 135 % of control
4 | TGATACCCTTCCTCAG (sugars l2 d12 l2, PS) | 4.76 % of control
5 | CTTTCATCTACTTTTCAG (sugars l3 d12 l3, PS) | 70.8 % of control
6 | CATCCATTTTCTGACTC (sugars l4 d11 l2, PS) | 52 % of control
7 | CATCCATTTTCTGACTCT (sugars l4 d12 l2, PS) | 42.4 % of control
8 | TATCTTATTGCTTTCCA (sugars l2 d12 l3, PS) | 63 % of control
9 | GTCTCAAATCAAACTA (sugars l4 d8 l4, PS) | 60.6 % of control
10 | TTTGCTTCACACACCAC (sugars l2 d12 l3, PS) | 89 % of control
11 | ATATTGAACTCACCCA (sugars l4 d9 l3, PS) | 67.3 % of control
12 | TGCTCTTAGCATCAGAGGTT (sugars l3 d14 l3, PS) | 25.9 % of control
13 | TATTTCCAAATTCACTTTTA (sugars l5 d11 l4, PS) | 121 % of control
14 | CCTTTTCTACTCTACTCTC (sugars l3 d14 l2, PS) | 55.7 % of control
15 | TGATTGTGGGCTTAGG (sugars l3 d10 l3, PS) | 2.71 % of control
16 | CCCAGCGTGATCTTCC (sugars l3 d10 l3, PS) | 4.6 % of control
17 | CGACTTGTACACGATC (sugars l3 d10 l3, PS) | 48.9 % of control
18 | CCACTCCATGTCAATCA (sugars l4 d11 l2, PS) | 63.5 % of control
19 | CTTTATTTCCAAATTCACT (sugars l5 d9 l2 d1 l2, PS) | 108 % of control
20 | CCTGGTTTATGATGGA (sugars l3 d10 l3, PS) | 26.1 % of control
21 | CCAGCGTGATCTTCCATCAC (sugars l3 d14 l3, PS) | 112 % of control
22 | CTTTATTTCCAAATTCACTT (sugars l2 d2 l1 d11 l4, PS) | 74.5 % of control

Row | Sequence | calcium oscillation score
23 | ATAGCAAACAGGATAC (sugars l3 d10 l3, PS) | 27.6 % of control
24 | GTCTACCATGTCGATGCTGC (sugars l3 d14 l3, PS) | 23.2 % of control
25 | ATTAACCGAACTGCGA (sugars l3 d10 l3, PS) | 10.9 % of control
26 | TAAGTGATTAACCAATTAAC (sugars l3 d14 l3, PS) | 27.2 % of control
27 | GTCGATGCTGCCGG (sugars l3 d8 l3, PS) | 36.5 % of control
28 | CGCAGGCGCGAGCA (sugars l3 d8 l3, PS) | 102 % of control
29 | CCCACTTTTAATTAAATTTC (sugars l3 d14 l3, PS) | 76.8 % of control
30 | TCAAATCAATTCTCATTTCA (sugars l3 d13 l4, PS) | 62 % of control
31 | TCATTTTTTATTCATAACTT (sugars l4 d12 l4, PS) | 62.3 % of control
32 | ATCACTGATTTTGAAGTCCC (sugars l5 d10 l5, PS) | ≥ 200 % of control
33 | AGACACCTCGTCAGCTAGCG (sugars l3 d14 l3, PS) | 9.07 % of control
34 | CGAAACCAAGGTCCCACCAG (sugars l3 d14 l3, PS) | 40.4 % of control
35 | GTCCCCCAAAATATCTC (sugars l3 d12 l2, PS) | 72.1 % of control
36 | CCTAATCCTGTGCTT (sugars l3 d9 l3, PS) | 58.2 % of control
37 | TCACAAACCCTGCTTGGCCA (sugars l3 d14 l3, PS) | 27.6 % of control
38 | CCATCTTAATTCATTTAATT (sugars l4 d13 l3, PS) | 69.1 % of control
39 | CTCATTTACCAATTATCTTT (sugars l4 d14 l2, PS) | 64 % of control
40 | TCATAGTCACTCTGGT (sugars l3 d10 l3, PS) | 85.7 % of control
41 | CAGCCATTTTCCATATA (sugars l3 d12 l2, PS) | 47.6 % of control
42 | AATCCATTTATATTCTTTTA (sugars l4 d12 l4, PS) | 38.5 % of control
43 | CTCACTTTACACATTAAATT (sugars l4 d12 l4, PS) | 59.8 % of control
44 | AGATATTCATTCCCTCA (sugars l3 d12 l2, PS) | 53 % of control

Row | Sequence | calcium oscillation score
45 | TCCATTAATTTAGCCA (sugars l4 d10 l2, PS) | 54.1 % of control
46 | CAATCCTAAACAATGC (sugars l4 d8 l4, PS) | 45.4 % of control
47 | AGCAGAGGAACGTGTG (sugars l3 d10 l3, PS) | 11.1 % of control
48 | GCCAGGGACGTGGGTGATAT (sugars l3 d14 l3, PS) | 0 % of control
49 | TGGCGGTGACTGCGA (sugars l3 d9 l3, PS) | 107 % of control
50 | CAGGTATCCAGCCATATTTC (sugars l3 d14 l3, PS) | 27.5 % of control
51 | CTTTATTTCCAAATTCACTT (sugars l2 d1 l1 d13 l3, PS) | 132 % of control
52 | GCTTTCCAATTCCCCAT (sugars l2 d12 l3, PS) | 94.5 % of control
53 | AGGTCAACTGGTTT (sugars l3 d8 l3, PS) | 117 % of control
54 | AACATCATGTCACACA (sugars l4 d8 l4, PS) | 56.3 % of control
55 | TCCAGCTACTTACCCAA (sugars l2 d12 l3, PS) | 89 % of control
56 | CTTTATTTCCAAATTCACT (sugars l3 d11 l1 d2 l2, PS) | 140 % of control
57 | CTTTATTTCCAAATTCACTT (sugars l3 d11 l1 d2 l3, PS) | 112 % of control
58 | TTTTTCTCTCTTAACTTTA (sugars l4 d11 l4, PS) | 83.6 % of control
59 | AGGCGCGAGCAGCG (sugars l3 d8 l3, PS) | 100 % of control
60 | CACCCACTTTCCTAATTC (sugars l3 d13 l2, PS) | 65.6 % of control
61 | TCCTTTGTAATTCCTTCT (sugars l3 d13 l2, PS) | 56.4 % of control
62 | AGCTTCCACATTTTACA (sugars l3 d12 l2, PS) | 63.8 % of control
63 | TATTTCCAAATTCACTTTTA (sugars lldlddldddddddddllll, PS) | 114 % of control
64 | AGCTTGTGGGTTTCAATCTT (sugars l3 d14 l3, PS) | 0 % of control
65 | GTGATGCAGGAGTTGT (sugars l3 d10 l3, PS) | 13.5 % of control
66 | CAGTTACCATCATACAT (sugars l3 d10 l4, PS) | 89 % of control

Row | Sequence | calcium oscillation score
67 | CCTATGCCAATTATTT (sugars l4 d8 l4, PS) | 68.2 % of control
68 | GTCCCGAGCCAAAGC (sugars l3 d9 l3, PS) | 31.3 % of control
69 | CTTTATTTCCAAATTCACT (sugars l4 d10 l1 d1 l3, PS) | 106 % of control
70 | CGTGGGTGATATTGTC (sugars l3 d10 l3, PS) | 0 % of control
71 | TTTACCAATTTGCCTAA (sugars l4 d9 l4, PS) | 43.1 % of control
72 | TTCCTCAGAAGGCATT (sugars l3 d10 l3, PS) | 36.9 % of control
73 | GTGTTTGATATTATCC (sugars l3 d10 l3, PS) | 46.7 % of control
74 | TCATTTTTCTCAAGCTCC (sugars l2 d14 l2, PS) | 55.8 % of control
75 | TTTACCCATCTTAATTCATT (sugars l4 d14 l2, PS) | 78.1 % of control
76 | TTATTTCCAAATTCACTTTT (sugars ldlllddddddddddlldll, PS) | 70.3 % of control
77 | TTGGGTGGAGTACGGA (sugars l3 d10 l3, PS) | 0 % of control
78 | TTAACCAATTAACCGAACTG (sugars l3 d14 l3, PS) | 122 % of control
79 | CTGCTCAGCTAAGACCCTCA (sugars l3 d14 l3, PS) | 4.03 % of control
80 | GAATAACATTAACCCT (sugars l4 d8 l4, PS) | 74.5 % of control
81 | TAACTCATCAACACCTTTTA (sugars l4 d14 l2, PS) | 82.6 % of control
82 | TCACTCATGCCTTAATC (sugars l4 d11 l2, PS) | 62 % of control
83 | CCATCCTATCTTCTAG (sugars l3 d10 l3, PS) | 44.3 % of control
84 | CCTGGTGGCGTTGGCC (sugars l3 d10 l3, PS) | 32.6 % of control
85 | GATATTGTCCAGGGACCCAA (sugars l3 d14 l3, PS) | 9.97 % of control
86 | CCCTTTCAAACCAGCA (sugars l3 d11 l2, PS) | 91.8 % of control
87 | TCACCACTTTAATCTGCC (sugars l2 d14 l2, PS) | 69 % of control
88 | TCAAACTAATATTAACACT (sugars l4 d11 l4, PS) | 80.8 % of control

Row | Sequence | calcium oscillation score
89 | CCACCTCCTGGTTTAT (sugars l3 d10 l3, PS) | 104 % of control
90 | ATTTCAGAGCAAAGTGACCC (sugars l3 d14 l3, PS) | 74.5 % of control
91 | TAAATACATCAATAGAAGGC (sugars l3 d14 l3, PS) | 50.4 % of control
92 | CAATTAACCGAACTGC (sugars l3 d10 l3, PS) | 89.7 % of control
93 | AACTGGTTTGTAGACTATTT (sugars l3 d14 l3, PS) | 0 % of control
94 | ACCCACTTTCCTAATTCCCA (sugars l1 d17 l2, PS) | 76.6 % of control
95 | AAAGATGAAATTTGCTCTTA (sugars l3 d14 l3, PS) | 145 % of control
96 | ACCCAATCTTCGACTG (sugars l3 d10 l3, PS) | 43.4 % of control
97 | CCATTTTTATCATCACCT (sugars l3 d13 l2, PS) | 63.8 % of control
98 | TGGATATAGTTAAGGC (sugars l3 d9 l4, PS) | 106 % of control
99 | ACTGGTTTGTAGACTATTTG (sugars l3 d14 l3, PS) | 0 % of control
100 | CAGTAACATCCATTTC (sugars l4 d8 l4, PS) | 87.6 % of control
101 | ACTGATCATAATCCTA (sugars l3 d9 l4, PS) | 81.1 % of control
102 | GTCTTCCTGAAGGACACCTG (sugars l3 d14 l3, PS) | 0 % of control
103 | TATTTCCAAATTCACTTTTA (sugars lllddldddddddddldlll, PS) | 147 % of control
104 | ATTTAGTTTTCCCACCC (sugars l2 d13 l2, PS) | 63.4 % of control
105 | ATACAGTTGGCCCTACCATA (sugars l3 d14 l3, PS) | 30.9 % of control
106 | TAGTTATACAGTTGGCCCTA (sugars l3 d14 l3, PS) | 19.1 % of control
107 | AAGCCCATTTACAATTC (sugars l4 d10 l3, PS) | 81.1 % of control
108 | TACACCATCCAAGTCAA (sugars l3 d10 l4, PS) | 97 % of control
